Measured values reported in US20180093104A1, “LIGHT IRRADIATION METHOD, LIGHT IRRADIATION DEVICE, LIGHT IRRADIATION SYSTEM, DEVICE SYSTEM FOR PHOTODYNAMIC DIAGNOSIS OR PHOTODYNAMIC THERAPY, SYSTEM FOR SPECIFYING TUMOR SITE AND SYSTEM FOR TREATING TUMOR” (SONY CORPORATION, priority 2015, published 2018).

Tested on: MCF7 (Human breast adenocarcinoma-derived cell line)
Test: In vitro PDT experiment: calcein fluorescence viability observation after 405 nm pulse laser irradiation
Type: cell-based
Protocol: In vitro experiments of PDT were performed by using the following materials. Target cells: MCF7 (Human breast adenocarcinoma-derived cell line) Dish: φ35 mm glass bottom dish (non-coated) Culture medium: D-MEM-10% FBS-1% P/S-1 mM pyruvate sodium Photosensitizer: 10 μg/ml talaporfin Viability assay fluorescence reagent: 10 μg/ml calcein Firstly, dishes A and B in which MCF7 had been cultured in the culture medium described above were prepared. Into the dish A, talaporfin was not added, and the dish A was used as a control. Into the dish B, talaporfin at 10 μg/ml was added. […] After the irradiation, incubation was performed further for 18 hours, the cultured cells in each dish were washed twice with phosphate-buffered saline (PBS), substitution with 1 ml of calcein at 10 μg/ml was performed, and the cultured cells in each dish were observed.

SMILES: C=Cc1c(C)c2cc3nc(c(CC(=O)N[C@@H](CC(=O)O)C(=O)O)c4[nH]c(cc5nc(cc1[nH]2)C(C)=C5CC)c(C)c4C(=O)O)[C@@H](CCC(=O)O)[C@@H]3C [talaporfin]
- killing of cultured cells (calcein fluorescent image, FIG. 8 vs FIG. 7) (Experiment 1: 10 μg/ml talaporfin, 24 hours incubation, pulse laser 405 nm, 120 fs, 1 mW for 30 minutes, observed 18 hours after irradiation, compared with dish A without talaporfin): significantly killed
- killing of cultured cells in parts of the dish where irradiation had not been performed (Experiment 2: 10 μg/ml talaporfin, 24 hours incubation, non-irradiated parts of dish B): not able to be confirmed
- killing of cultured cells (calcein fluorescent image, FIG. 10 vs FIG. 9) (Experiment 2: 10 μg/ml talaporfin, 24 hours incubation, pulse laser 405 nm for 10 minutes, compared with dish A without talaporfin): significantly killed
- killing of cultured cells (calcein fluorescent image, FIG. 12) (Experiment 3: 10 μg/ml talaporfin, 24 hours incubation, not irradiated with a pulse laser): not killed
- killing of cultured cells (calcein fluorescent image, FIG. 14) (Experiment 4: 10 μg/ml talaporfin, 1.5 hours incubation, pulse laser 405 nm for 10 minutes): the cells were alive
